Measured values from US10669267B2, “Substituted N-[2-(4-phenoxypiperidin-1-yl)-2-(1,3-thiazol-5-yl)ethyl]benzamide and N-[2-(4-benzyloxypiperidin-1-yl)-2-(1,3-thiazol-5-yl)ethyl]benzamide derivatives P2X7 receptor antagonists” (Axxam S.P.A., priority 2016, dated 2020).
Like-named read-outs stand apart in the source and are kept apart here.

Assays:
human P2X7 channel = human P2X7 channel (Homo sapiens (Human), UniProt Q99572); assay: human P2X7 channel assay by automated patch-clamp (QPatch16X), BzATP-evoked current; type: cell-based; conditions: HEK-293 cells expressing P2X7, whole-cell voltage clamp, 100 microM BzATP, holding -80 mV; read-out: hP2X7 (IC50; nM)
human P2X7 channel, sequence (Q99572 whole entry): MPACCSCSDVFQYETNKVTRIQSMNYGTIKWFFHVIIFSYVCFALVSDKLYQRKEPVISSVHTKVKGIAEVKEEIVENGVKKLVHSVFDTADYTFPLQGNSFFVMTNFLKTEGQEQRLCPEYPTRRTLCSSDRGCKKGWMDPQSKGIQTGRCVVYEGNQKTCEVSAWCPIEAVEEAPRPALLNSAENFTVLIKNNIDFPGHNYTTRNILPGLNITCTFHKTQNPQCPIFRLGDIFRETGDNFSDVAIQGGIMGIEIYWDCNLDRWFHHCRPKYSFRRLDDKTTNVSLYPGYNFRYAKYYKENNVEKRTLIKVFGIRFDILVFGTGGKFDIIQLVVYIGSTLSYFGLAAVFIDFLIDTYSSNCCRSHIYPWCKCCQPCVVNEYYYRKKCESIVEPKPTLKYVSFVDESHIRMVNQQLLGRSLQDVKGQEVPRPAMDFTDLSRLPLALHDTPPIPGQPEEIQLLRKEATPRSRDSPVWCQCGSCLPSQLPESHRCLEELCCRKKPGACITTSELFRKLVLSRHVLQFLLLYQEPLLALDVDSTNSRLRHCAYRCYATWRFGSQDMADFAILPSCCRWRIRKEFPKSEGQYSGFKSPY
Procedure: In order to directly monitor the block of P2X7 channel, an electrophysiological assay was developed and implemented on the QPatch16X automated electrophysiology instrument.
HEK-293 cells expressing the P2X7 channels were cultured in modified EMEM.
72 hours before experiment, 5 million cells were seeded onto T225 flasks. Just before the experiment cells were washed twice, detached from the flask with trypsin-EDTA, re-suspended in the suspension solution and placed on the QPatch 16x.
The compounds (20 mM in a 100% DMSO) stored at −20° C. were prepared the day of the experiment (a first dilution 1:20 in 100% DMSO to prepare a 1 mM stock solution, then a 1 microM solution in external solution+a serial dilution 1:10).
The standard whole-cell voltage clamp experiments were performed at room temperature. For these experiments the multihole technology was used and the data were sampled at 2 KHz.
After establishment of the seal and the passage in the whole cell configuration, the cells were held at −80 mV. The P2XR7 current was evoked by applying 100 microM of BzATP alone (4 times) and then in the presence increasing concentrations of the compound under investigation (1, 10, 100 and 1000 nM).
The pre-incubation periods 5 to 8 contain increasing concentrations of the compound of interest (1, 10, 100 and 1000 nM), as illustrated in FIGURE.
The maximal inward current evoked by BzATP in absence or presence of increasing concentrations of the compounds under investigation was measured and normalized.
Y: normalized response, 100% down to 0%, decreasing as X increases.
LogIC50: same log units as X
HillSlope: slope factor or HS, unitless

rat P2X7R = rat P2X7R (Rattus norvegicus (Rat), UniProt Q64663); assay: rat P2X7 Ca2+ influx, Screen Quest Fluo-8 No Wash Calcium Assay Kit (FLIPR TETRA); type: cell-based; conditions: read-out: rP2X7 (IC50; nM)
rat P2X7R, sequence (Q64663 whole entry): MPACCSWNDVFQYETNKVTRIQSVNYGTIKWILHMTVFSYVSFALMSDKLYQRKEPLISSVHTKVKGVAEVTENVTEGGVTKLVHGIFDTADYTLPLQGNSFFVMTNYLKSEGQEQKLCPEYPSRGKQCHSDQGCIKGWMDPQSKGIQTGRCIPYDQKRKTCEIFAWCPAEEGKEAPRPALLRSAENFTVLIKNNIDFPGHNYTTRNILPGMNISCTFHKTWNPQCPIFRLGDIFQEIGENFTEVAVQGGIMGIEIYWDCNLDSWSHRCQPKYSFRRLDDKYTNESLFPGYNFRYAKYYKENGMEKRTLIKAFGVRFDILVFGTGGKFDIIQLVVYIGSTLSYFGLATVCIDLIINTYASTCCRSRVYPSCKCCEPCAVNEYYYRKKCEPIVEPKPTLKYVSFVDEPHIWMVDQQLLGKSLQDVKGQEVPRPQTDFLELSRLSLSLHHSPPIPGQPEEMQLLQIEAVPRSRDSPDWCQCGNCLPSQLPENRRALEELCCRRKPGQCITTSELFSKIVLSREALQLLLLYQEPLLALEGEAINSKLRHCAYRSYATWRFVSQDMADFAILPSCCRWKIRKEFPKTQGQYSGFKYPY
Procedure: Ca^2+ influx was measured in HEK-293 cells stably transfected with the receptor using Screen Quest™ Fluo-8 No Wash Calcium Assay Kit (AAt Bioquest®). Briefly, once inside the cells, the lipophilic blocking groups of Fluo-8 are cleaved by non-specific cell esterases, resulting in a negatively-charged fluorescent-dye that stays inside cells. Its fluorescence increases upon binding to calcium. When HEK-293/P2X7 cells were stimulated with BzATP, Ca^2+ entered the cells and the fluorescence of Fluo-8 NW increaseed.
To routinely test the compounds, HEK-293 cells stably transfected with rat P2X7R were seeded overnight in growth medium at 10000, 15000 or 20000 cells/well in 384-well plate, according to the level of response after thawing. 24 hours later, the medium was removed and the cells were pre-loaded at RT for 1 hour with 20 μL/w of Fluo-8 NW prepared in Tyrode 0.3 mM Ca^2+/Mg^2+-free.
Compounds were tested at […] according to the following method: • first injection at […] of 10 μL of 3× test compound (in Tyrode's buffer 0.3 mM Ca^2+/Mg^2+-free+DMSO 0.5% final concentration) • 5′ incubation • second injection at […] of 15 µL of 3× BzATP at ˜ECK) (in Tyrode's buffer 0.3 mM Ca^2+/Mg^2+-free+BSA 0.0003% final concentration) • Fluorescence recording for 3′
Between one plate and the following, tips were extensively washed with water, then with 100% DMSO and finally with water to avoid carry-over inside the tips.
The effect of the test compounds was measured as percent inhibition vs a reference antagonist and IC50 values were calculated accordingly.

[1] = metabolic stability using Human liver Microsomes; type: in vitro ADME; design: unit not given here; conditions: 1 μM test compound, 1 mg/mL protein, pH 7.4, 0-60 min
Procedure: In vitro evaluation of test compounds for metabolic stability using Human liver
Test System Human (Mouse) Liver Microsomes
Test compound concentration: 1μM
Time Points: 0, 5, 10, 30 and 60 minutes
Final Protein concentration: 1 mg/mL
Number of Replicates: Two
Potassium Phosphate Buffer pH 7.4 100 mM
End Point: % Remaining of Test compound, Half life, Clint
Preparation and Dilution of Test Compound:
10 mM stock solution of test compound were prepared in DMSO and dilute with water: acetonitrile (1:1) to a concentration of 1 mM. Working concentration of 100 μM were prepared by further dilution with water: acetonitrile (1: 1).
Preparation of Potassium Phosphate buffer pH 7.4:
100 mL of Milli Q water will be added to K2HPO4 (1.398 g) and KH2PO4 (0.27 g) to get final pH 7.4.
Preincubation mixture: 2.5 μL Test Cpd.+75 μL Liver microsomes@3.33 mg/mL+85 μL of 100 mM potassium phosphate buffer (Preincubate for 10 min @37° C.)
60 min w/o cofactor: 32.5 μL of Preincubation mixture+17.5 μL of 100 mM potassium phosphate buffer (Incubate for 60 min@37° C.)
0 min sample: 16.25 μL of Preincubation mixture+200 μL of acetonitrile containing internal standard+8.75 μL of cofactor Incubation mixture 62 μL of cofactor (2.5 mM)+Remaining incubation mixture (Incubated for 60 min@37° C.).
Sample preparation: 25 μL incubation mixture+200 μL of acetonitrile containing internal standard+Vortex 5 min@1200 rpm+Centrifuge 10 min@4000 rpm. Dilute supernatant 2 fold with water and injected on LC-MS/MS.
Bioanalysis: LC-MS/MS method LC generic gradient conditions will be used and the details will be provided in the report.

[2] = Table 4, HEK-293 cells stably transfected with rat P2X7R, BzATP stimulation
[3] = Table 5, comparison with Compound 59 of WO2015118019

Structure (SMILES)	IC50 (human P2X7 channel) [nM]	IC50 (rat P2X7R; [2]) [nM]	Human Liver Microsomal Clearance (CLi; μg/min/mg protein) [1]	IC50 (rat P2X7R; [3]) [nM]
Cc1ncsc1C(CNC(=O)c1cccc2ncccc12)N1CCC(Oc2ccc(F)cc2)CC1 (stereo not shown) [Compound 19, N-{2-[4-(4-fluorophenoxy)piperidin-1-yl]-2-(4-methyl-1,3-thiazol-5-yl)ethyl}quinoline-5-carboxamide]	23.9	582	71.12	
O=C(NCC(c1scnc1C(F)F)N1CCC(OCc2ccc(F)c(F)c2)CC1)c1cccc2ncccc12 (stereo not shown) [Compound 33, N-{2-[4-(difluoromethyl)-1,3-thiazol-5-yl]-2-{4-[(3,4-difluorophenyl)methoxy]piperidin-1-yl}ethyl}quinoline-5-carboxamide]	56.2	182		
Cc1ncsc1C(CNC(=O)c1cccc2ncccc12)N1CCC(OCc2cccc(F)c2)CC1 (stereo not shown) [Compound 15, N-(2-{4-[(3-fluorophenyl)methoxy]piperidin-1-yl}-2-(4-methyl-1,3-thiazol-5-yl)ethyl)quinoline-5-carboxamide]	11.6	288		
Cc1ncsc1C(CNC(=O)c1c(F)cccc1Cl)N1CCC(OCc2ccc(F)cc2)CC1 (stereo not shown) [Compound 1, 2-chloro-6-fluoro-N-(2-{4-[(4-fluorophenyl)methoxy]piperidin-1-yl)-2-(4-methyl-1,3-thiazol-5-yl}ethyl)benzamide]	45	1040		
O=C(NCC(c1scnc1C(F)F)N1CCC(Oc2ccccc2F)CC1)c1c(F)cccc1Cl (stereo not shown) [Compound 30, 2-chloro-N-{2-[4-(difluoromethyl)-1,3-thiazol-5-yl]-2-[4-(2-fluorophenoxy)piperidin-1-yl]ethyl}-6-fluorobenzamide]	40.7	329		
Cc1ncsc1C(CNC(=O)c1cccc2ncccc12)N1CCC(Oc2cccc(F)c2)CC1 (stereo not shown) [Compound 21, N-{2-[4-(3-fluorophenoxy)piperidin-1-yl]-2-(4-methyl-1,3-thiazol-5-yl)ethyl}quinoline-5-carboxamide]	26.4	268		268

Continued, values first:

IC50 (human P2X7 channel) [nM]	IC50 (rat P2X7R; [2]) [nM]	Human Liver Microsomal Clearance (CLi; μg/min/mg protein) [1]	IC50 (rat P2X7R; [3]) [nM]	Structure (SMILES)
30.2	355	93.44		Cc1ncsc1C(CNC(=O)c1cccc2ncccc12)N1CCC(Oc2ccccc2F)CC1 (stereo not shown) [Compound 22, N-{2-[4-(2-fluorophenoxy)piperidin-1-yl]-2-(4-methyl-1,3-thiazol-5-yl)ethyl}quinoline-5-carboxamide]
30.6	594	59.41		Cc1ncsc1C(CNC(=O)c1c(F)cccc1Cl)N1CCC(Oc2cc(F)cc(F)c2)CC1 (stereo not shown) [Compound 11, 2-chloro-N-{2-[4-(3,5-difluorophenoxy)piperidin-1-yl]-2-(4-methyl-1,3-thiazol-5-yl)ethyl}-6-fluorobenzamide]
28.9	441			O=C(NCC(c1scnc1C(F)F)N1CCC(Oc2cccc(F)c2)CC1)c1c(F)cccc1Cl (stereo not shown) [Compound 29, 2-chloro-N-{2-[4-(difluoromethyl)-1,3-thiazol-5-yl]-2-[4-(3-fluorophenoxy)piperidin-1-yl]ethyl}-6-fluorobenzamide]
35.1	506			Cc1ncsc1C(CNC(=O)c1c(F)cccc1Cl)N1CCC(OCc2cc(F)cc(F)c2)CC1 (stereo not shown) [Compound 5, 2-chloro-N-(2-{4-[(3,5-difluorophenyl)methoxy]piperidin-1-yl}-2-(4-methyl-1,3-thiazol-5-yl)ethyl)-6-fluorobenzamide]
39.7	144		144	O=C(NCC(c1scnc1C(F)F)N1CCC(Oc2ccc(F)cc2)CC1)c1cccc2ncccc12 (stereo not shown) [Compound 34, N-{2-[4-(difluoromethyl)-1,3-thiazol-5-yl]-2-[4-(4-fluorophenoxy)piperidin-1-yl]ethyl}quinoline-5-carboxamide]
51.5	709			Cc1ncsc1C(CNC(=O)c1c(F)cccc1Cl)N1CCC(Oc2ccc(F)cc2)CC1 (stereo not shown) [Compound 7, 2-chloro-6-fluoro-N-{2-[4-(4-fluorophenoxy)piperidin-1-yl]-2-(4-methyl-1,3-thiazol-5-yl)ethyl}benzamide]
25.8	380			Cc1ncsc1C(CNC(=O)c1c(F)cccc1Cl)N1CCC(Oc2ccc(F)c(F)c2)CC1 (stereo not shown) [Compound 12, 2-chloro-N-{2-[4-(3,4-difluorophenoxy)piperidin-1-yl]-2-(4-methyl-1,3-thiazol-5-yl)ethyl}-6-fluorobenzamide]
